In US20250228851A1, “ALLOSTERIC INHIBITOR COMPOUNDS FOR OVERCOMING CANCER RESISTANCE” (priority 2021, published 2025):

How the values were obtained:
[1] = test system: p185-Ba/F3 (WT-Ba/F3-p185-BCR-ABL); experiment: Proliferation by trypan blue exclusion, p185-Ba/F3; assay type: cell-based, murine; details: p185-Ba/F3, 1.0, 2.0 and 5.0 μM
Experimental: • 1. Ba/F3 cells were obtained from the German Collection of Microorganisms and Cell Cultures (DSMZ, Braunschweig, Germany) and maintained in RPMI 1640 medium supplemented with 10% fetal calf serum (Invitrogen) containing 10 ng/ml of interleukin-3 (Cell Concepts, Umkirch, Germany). Ecotropic Phoenix cells and Rat-1 cells were cultured in Dulbecco's modified Eagle's medium supplemented with 10% fetal calf serum. GNF-2 (Sigma-Adrich, Steinheim, Germany) was dissolved in dimethyl sulfoxide and added at a final concentration of […]. Cell growth was assessed by dye exclusion using Trypan blue. Proliferation was assessed using the XTT proliferation kit (Roche, Mannheim, Germany), according to the manufacturer's instructions. • 2. Ba/F3: IL-3 dependent lymphatic murine pro B cell line. […]
FIGS. 4A and 4B. […] All cell lines were treated with the indicated concentrations of Compound 16 for total period of five days and proliferation was determined by trypan blue exclusion of viable cells. […] For factor-independent growth, the number of viable cells was determined at day 3 by trypan blue dye exclusion.

[2] = test system: Ba/F3 cells expressing p185-BCR-ABL; experiment: XTT cell viability / proliferation, Ba/F3 expressing p185-BCR-ABL; assay type: cell-based, murine
Experimental: • 1. Ba/F3 cells were obtained from the German Collection of Microorganisms and Cell Cultures (DSMZ, Braunschweig, Germany) and maintained in RPMI 1640 medium supplemented with 10% fetal calf serum (Invitrogen) containing 10 ng/ml of interleukin-3 (Cell Concepts, Umkirch, Germany). Ecotropic Phoenix cells and Rat-1 cells were cultured in Dulbecco's modified Eagle's medium supplemented with 10% fetal calf serum. GNF-2 (Sigma-Adrich, Steinheim, Germany) was dissolved in dimethyl sulfoxide and added at a final concentration of […]. Cell growth was assessed by dye exclusion using Trypan blue. Proliferation was assessed using the XTT proliferation kit (Roche, Mannheim, Germany), according to the manufacturer's instructions. • 2. Ba/F3: IL-3 dependent lymphatic murine pro B cell line. Ba/F3 cells expressing either p185-BCR-ABL1 (p185-BCR-ABL-Ba/F3) or p210-BCR-ABL (p210-BCR-ABL-Ba/F3). p185-BCR-ABL1 (activated kinases substitute for the IL-3 signaling and therefore render the cells IL3 independent. Ba/F3 cells expressing either p185-BCR-ABL (p185-Ba/F3) or p210-BCR-ABL (p210-Ba/F3). Ba/F3 cells obtained from the German Collection of Microorganisms and Cell Cultures (DSMZ, Braunschweig, Germany). • 3. Mutant transduced Ba/F3 cells (T315I-p185-BCR-ABL1 or T315I-p210-BCR-ABL1): Ba/F3 cells expressing either the mutated forms T315I-p185-BCR-ABL1 or T315I-p210-BCR-ABL1. • 4. WT-Sup-B15: A Ph+ ALL cell line harboring the p185-BCR-ABL. Sup-B15: established from the bone marrow of a child with acute lymphoblastic leukemia (B cell precursor ALL) in second relapse in 1984; described in the literature to carry the ALL-variant (m-BCR) of the BCR-ABL1 fusion gene (e1-a2) correct, because it results in the p185-BCR-ABL version. • 5. […] V617FJAK2 HEL: (Human erythroleukemia) is a growth factor independent erythroleukemic cell line established from the bone marrow of a patient with relapsed Hodgkin disease after autologous bone marrow transplantation (Martin P & Papayannopoulou T: Science 1982; 216:1233-1235). HEL cells display a block in differentiation at the level of common erythroid-megakaryocytic progenitor and have been commonly used as a model to study erythroid and megakaryocytic differentiation. • 7. Jurkat: an immortalized human T lymphocyte first derived from the peripheral blood of a child suffering from T cell leukemia. Jurkat cells are used to study acute T cell leukemia, T cell signaling, and the expression of various chemokine receptors susceptible to viral entry, particularly HIV.
FIGS. 1A and 1B: Effects of Compound 16 on Ba/F3 cells expressing either p185-BCR-ABL or T315I-p185-BCR-ABL. Cells were exposed to increasing concentration of Compound 16 [empty vehicle (0.0 μM+IL3), 2.5, 5.0 and 10.0 μM]. […] Cell viability (CV) was assessed using the XTT method as described in the experimental part. The means±SD of triplicates from one representative experiment out of three performed are given.
FIGS. 7A-C: Effects of Compound 16 on of Ba/F3 cells expressing WT-p185-BCR-ABL (FIG. 7A) and the mutant gatekeeper T315I-p185-BCR-ABL (FIG. 7B) by Compound 16. Cells were exposed to increasing concentrations of Compound 16.

COc1ccc(C(=O)N2CCN(c3cc(Nc4ccc(OC(F)(F)F)cc4)ncn3)CC2)cc1OC [Compound 16] was tested. Which “effect on proliferation (in words)” value [1] did it give?
Its value is “inhibits the proliferation”.

What about the cells inhibited ([2]; 1 μM, within the first 24 hours) of the same compound?
Its cells inhibited is 35%.

And the viable cells ([2]; 2 μM, T=48 hr)?
Its viable cells is 27.59%.

And the cell proliferation affected ([2]; 5 μM)?
Its cell proliferation affected is about 90%.

What about the time of maximum inhibition post application ([2]; 5 μM, WT-p185- and T315I-p185-BCR-ABL Ba/F3) of the same compound?
The time of maximum inhibition post application was 60 h.
